According to ChEMBL document CHEMBL5260817, “Polyamine-based analogs and conjugates as antikinetoplastid agents” (Eur J Med Chem, 2017):

How the values were obtained:
Trypanothione reductase [1] = biological target: Trypanothione reductase (Trypanosoma cruzi, UniProt P28593); assay: Inhibition of Trypanosoma cruzi TryR expressed in escherichia coli SG5
Trypanosoma cruzi [2] = assay: Antiprotozoal activity against Trypanosoma cruzi epimastigotes; assay type: functional, organism-based; details: Trypanosoma cruzi
Leishmania braziliensis [3] = assay: Antiprotozoal activity against Leishmania braziliensis promastigotes; assay type: functional, organism-based
Trypanosoma cruzi [4] = assay: Antiprotozoal activity against Trypanosoma cruzi amastigotes; assay type: functional, organism-based
Leishmania chagasi = assay: Antiprotozoal activity against Leishmania chagasi amastigotes; assay type: functional, organism-based
Leishmania braziliensis [5] = assay: Antiprotozoal activity against Leishmania braziliensis amastigotes; assay type: functional, organism-based
Trypanosoma cruzi [6] = assay: Antiprotozoal activity against Trypanosoma cruzi trypomastigotes assessed as growth inhibition at 1.6 uM relative to control; assay type: functional
Trypanothione reductase [7] = biological target: Trypanothione reductase (Crithidia fasciculata, UniProt P39040); assay: Inhibition of Crithidia fasciculata TryR overexpressed in escherichia coli assessed as inhibition constant
Leishmania braziliensis [8] = assay: Leishmanicidal activity against Leishmania braziliensis MHOM/BR/1975/M2904; assay type: functional, organism-based
Leishmania infantum [9] = assay: Leishmanicidal activity against Leishmania infantum MCAN/ES/2001/UCM-10; assay type: functional, organism-based
Leishmania donovani [10] = assay: Leishmanicidal activity against Leishmania donovani MHOM/PE/84/LC26; assay type: functional, organism-based
Leishmania infantum [11] = assay: Antiprotozoal activity against Leishmania infantum promastigotes measured after 5 days; assay type: functional, organism-based; details: 120 h
Leishmania infantum [12] = assay: Antiprotozoal activity against Leishmania infantum amastigotes measured after 5 days; assay type: functional, organism-based; details: 120 h
Leishmania donovani [13] = assay: Antiprotozoal activity against Leishmania donovani promastigote at 10 uM relative to control; assay type: functional
Trypanosoma cruzi [14] = assay: Antiprotozoal activity against Trypanosoma cruzi amastigotes infected in mouse Peritoneal macrophage cells assessed as growth inhibition at 1.56 uM relative to control; assay type: functional
Trypanosoma cruzi [15] = assay: Antiprotozoal activity against Trypanosoma cruzi Y strain epimastigotes; assay type: functional, organism-based
Trypanosoma cruzi [16] = assay: Antiprotozoal activity against Trypanosoma cruzi infected in mouse Peritoneal macrophage cell assessed as growth inhibition at 0.8 uM measured after 4 days relative to control; assay type: functional; details: 96 h, time 4 day
[17] = Inhibition of Trypanosoma brucei His tagged TryS in presence of ATP by LDH/PK assay
[18] = Inhibition of Leishmania infantum His tagged TryS in presence of ATP by LDH/PK assay
Trypanothione synthetase = Trypanothione synthetase (Crithidia fasciculata, UniProt O60993); assay: Inhibition of Crithidia fasciculata His tagged TryS in presence of ATP by LDH/PK assay
Leishmania infantum [19] = assay: Antiprotozoal activity against Leishmania infantum; assay type: functional, organism-based
Leishmania infantum [20] = assay: Antiprotozoal activity against Leishmania infantum promastigotes; assay type: functional, organism-based
[21] = Inhibition of Trypanosoma brucei TryS
[22] = Inhibition of Leishmania infantum TryS in presence of ATP by Malachite green staining based end-point assay
Trypanosoma brucei [23] = assay: Antiprotozoal activity against Trypanosoma brucei […] assessed as lethality at 10 uM relative to control; assay type: functional
Leishmania donovani [24] = assay: Antiprotozoal activity against Leishmania donovani promastigote assessed as lethality at 10 uM relative to control; assay type: functional
Leishmania donovani [25] = assay: Antiprotozoal activity against Leishmania donovani WR555 assessed as growth inhibition at 1 uM relative to control; assay type: functional
Leishmania donovani [26] = assay: Antiprotozoal activity against Leishmania donovani WR555 infected in mouse liver assessed as parasite growth inhibition at 10 mg/kg relative to control; assay type: functional
Trypanosoma brucei [27] = assay: Trypanocidal activity against Trypanosoma brucei Lab 110 strain; assay type: functional, organism-based
Trypanosoma brucei [28] = assay: Trypanocidal activity against Trypanosoma brucei K 269 strain; assay type: functional, organism-based
Trypanosoma brucei [29] = assay: Trypanocidal activity against Trypanosoma brucei K 243 strain; assay type: functional, organism-based
Trypanosoma brucei [30] = assay: Trypanocidal activity against Trypanosoma brucei K 243-As-10-3 strain; assay type: functional, organism-based
Leishmania donovani [31] = assay: Antiprotozoal activity against Leishmania donovani MHOM/IN/1978/UR6 strain promastigotes assessed as parasite growth inhibition; assay type: functional, organism-based
Leishmania donovani [32] = assay: Antiprotozoal activity against Leishmania donovani WR555 infected in mouse liver assessed as parasite growth inhibition at 15 mg/kg relative to control; assay type: functional
Syrian golden hamster = assay: In vivo antiprotozoal activity against Leishmania donovani amastigotes in hamster spleen assessed as reduction of amastigotes count measured after 7 days relative to control; assay type: functional, Mesocricetus auratus; details: time 7 day
Trypanosoma cruzi [33] = assay: Antiprotozoal activity against Trypanosoma cruzi […] infected in mouse assessed as reduction in curative effect at 15 mg/kg relative to control; assay type: functional
Trypanosoma cruzi [34] = assay: Antiprotozoal activity against Trypanosoma cruzi […] infected in African green monkey Vero cells assessed as reduction in infection measured after 72 hrs relative to control; assay type: functional
Trypanosoma cruzi [35] = assay: Antiprotozoal activity against Trypanosoma cruzi […] measured after 72 hrs; assay type: functional, organism-based
[36] = Inhibition of Trypanosoma cruzi Fe - Superoxide dismutase
MRC5 [37] = assay: Anticancer activity against human MRC5 cells assessed as cell growth inhibition measured after 24 hrs by MTT assay; assay type: functional, cell-based; details: MRC5, 24 h
Trypanosoma cruzi [38] = assay: Antiprotozoal activity against Trypanosoma cruzi infected in mouse Peritoneal macrophage cell assessed as growth inhibition at 1.6 uM measured after 4 days relative to control; assay type: functional; details: 96 h, time 4 day
[39] = Inhibition of Fulllength Trypanosoma brucei MetRS expressed in Escherichia coli in presence of ATP
HepG2 = assay: Anticancer activity against human HepG2 cells assessed as cell growth inhibition; assay type: functional, cell-based
Trypanosoma brucei [40] = assay: Antiprotozoal activity against Trypanosoma […] STIB900 strain; assay type: functional, organism-based
[41] = Anticancer activity against human CRL-8155 cells assessed as cell growth inhibition; assay type: functional, cell-based; details: CRL8155
MRC5 [42] = assay: Anticancer activity against human MRC5 cells assessed as cell growth inhibition; assay type: functional, cell-based
Trypanosoma cruzi [43] = assay: Antiprotozoal activity against Trypanosoma cruzi amastigotes measured after 4 days; assay type: functional, organism-based; details: 96 h
Trypanosoma brucei [44] = assay: Antiprotozoal activity against Trypanosoma brucei trypomastigotes measured after 4 days by MTT assay; assay type: functional, organism-based; details: 96 h
Leishmania infantum [45] = assay: Antiprotozoal activity against Leishmania infantum amastigotes measured after 7 days by microscopic analysis; assay type: functional, organism-based; details: 168 h

Sequence of Trypanothione reductase (Trypanosoma cruzi, UniProt P28593) (P28593 whole entry): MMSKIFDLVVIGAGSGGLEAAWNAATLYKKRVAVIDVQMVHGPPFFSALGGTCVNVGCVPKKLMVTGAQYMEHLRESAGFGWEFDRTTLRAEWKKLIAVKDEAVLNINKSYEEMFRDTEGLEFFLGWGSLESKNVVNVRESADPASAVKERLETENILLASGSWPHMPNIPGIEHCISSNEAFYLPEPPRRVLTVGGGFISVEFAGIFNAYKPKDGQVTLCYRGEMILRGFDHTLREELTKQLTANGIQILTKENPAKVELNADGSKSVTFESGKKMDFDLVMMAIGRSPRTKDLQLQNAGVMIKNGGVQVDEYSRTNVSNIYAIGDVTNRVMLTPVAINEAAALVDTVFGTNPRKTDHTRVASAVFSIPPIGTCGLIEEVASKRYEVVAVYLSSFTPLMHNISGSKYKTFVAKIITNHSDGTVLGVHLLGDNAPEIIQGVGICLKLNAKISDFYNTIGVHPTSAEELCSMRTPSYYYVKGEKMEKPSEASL
Sequence of Trypanothione reductase (Crithidia fasciculata, UniProt P39040) (P39040 whole entry): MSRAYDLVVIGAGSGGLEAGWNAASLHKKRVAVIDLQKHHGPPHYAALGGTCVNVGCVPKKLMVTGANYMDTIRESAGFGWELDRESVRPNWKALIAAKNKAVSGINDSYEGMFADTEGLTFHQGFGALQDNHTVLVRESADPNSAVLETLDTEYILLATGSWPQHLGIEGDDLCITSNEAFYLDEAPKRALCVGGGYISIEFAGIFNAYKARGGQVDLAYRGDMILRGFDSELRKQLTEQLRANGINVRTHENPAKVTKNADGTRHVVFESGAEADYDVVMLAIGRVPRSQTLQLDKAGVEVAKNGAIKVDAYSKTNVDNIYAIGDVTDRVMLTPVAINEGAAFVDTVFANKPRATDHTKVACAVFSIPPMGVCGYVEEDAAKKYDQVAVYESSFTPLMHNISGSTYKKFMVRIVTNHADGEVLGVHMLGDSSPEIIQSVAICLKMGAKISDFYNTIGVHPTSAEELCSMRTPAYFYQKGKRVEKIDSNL
Sequence of Trypanothione synthetase (O60993 whole entry): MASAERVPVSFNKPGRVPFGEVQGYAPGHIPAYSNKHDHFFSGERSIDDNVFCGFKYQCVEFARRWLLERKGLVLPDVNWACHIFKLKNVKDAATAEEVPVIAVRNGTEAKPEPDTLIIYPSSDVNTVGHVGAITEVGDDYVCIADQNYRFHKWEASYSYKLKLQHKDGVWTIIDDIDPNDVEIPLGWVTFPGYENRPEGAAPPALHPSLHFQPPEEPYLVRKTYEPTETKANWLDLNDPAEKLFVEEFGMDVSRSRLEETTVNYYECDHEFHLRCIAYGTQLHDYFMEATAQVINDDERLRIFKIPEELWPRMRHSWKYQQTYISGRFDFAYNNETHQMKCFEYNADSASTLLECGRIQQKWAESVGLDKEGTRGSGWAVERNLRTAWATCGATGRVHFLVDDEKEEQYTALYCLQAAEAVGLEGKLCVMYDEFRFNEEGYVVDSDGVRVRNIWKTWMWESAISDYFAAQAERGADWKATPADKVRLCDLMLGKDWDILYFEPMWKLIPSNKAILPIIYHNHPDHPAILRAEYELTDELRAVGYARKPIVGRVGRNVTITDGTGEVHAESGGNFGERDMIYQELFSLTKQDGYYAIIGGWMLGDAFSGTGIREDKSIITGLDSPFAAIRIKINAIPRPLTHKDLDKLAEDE

NCCCCN(CCCN)CCCNc1cc(Cl)ccc1Sc1ccccc1
IC50 (Trypanothione reductase [1]): 1 µM

CCCCCCCCCCNCCCCCCN
IC50 (Trypanosoma cruzi [2]): 10 µM
IC50 (Leishmania braziliensis [3]): 10 µM
IC50 (Trypanosoma cruzi [4]): 10 µM
IC50 (Leishmania chagasi): 10 µM
IC50 (Leishmania braziliensis [5]): 10 µM

C1CCC(CCCNCCCN2CCN(CCCNCCCC3CCCCC3)CC2)CC1
inhibition at 1.6 µM (Trypanosoma cruzi [6]): 70%

NCCCNCCCCNCCCNC(=O)CCc1ccc(O)c(O)c1
Ki (Trypanothione reductase [7]): 85 µM

CN(CCCNc1c(NCCC[N+](C)(C)C)c(=O)c1=O)CCCNc1c(NCCC[N+](C)(C)C)c(=O)c1=O
IC50 (Leishmania braziliensis [8]): > 15 µM
IC50 (Leishmania infantum [9]): > 15 µM
IC50 (Leishmania donovani [10]): > 15 µM

O=C1c2cccc3cccc(c23)C(=O)N1CCCNCCCCNCCCN1C(=O)c2cccc3cccc(c23)C1=O
IC50 (Leishmania infantum [11]): 1 µM
IC50 (Leishmania infantum [12]): 1 µM

COc1ccc2nc3cc(Cl)ccc3c(NCCCCCCCCNc3c4ccc(Cl)cc4nc4ccc(OC)cc34)c2c1
inhibition at 10 µM (Leishmania donovani [13]): 99%
inhibition at 1.56 µM (Trypanosoma cruzi [14]): 70%

NCCC(=O)CN
IC50 (Trypanosoma cruzi [15]): 1180 µM

Clc1ccc(Sc2ccccc2)c(CNCCCN2CCN(CCCNCc3cc(Cl)ccc3Sc3ccccc3)CC2)c1
inhibition at 0.8 µM (Trypanosoma cruzi [16]): 90%

CNCCNC(=O)CN1C(=O)Cc2c([nH]c3ccc(Br)cc23)-c2ccc(Cl)cc21
IC50 [17]: 59 µM
IC50 [18]: 0.15 µM
IC50 (Trypanothione synthetase): 0.03 µM
IC50 (Leishmania infantum [19]): 12.6 µM

CNCCNC(=O)CN1C(=O)Cc2c([nH]c3ccc(C(F)(F)F)cc23)-c2ccccc21
IC50 (Leishmania infantum [20]): 112 µM
IC50 [21]: 75 µM
IC50 [22]: 0.35 µM

COc1ccc2nc3cc(Cl)ccc3c(NCCNCCCNCCNc3c4ccc(Cl)cc4nc4ccc(OC)cc34)c2c1
Activity (Trypanosoma brucei [23]): 99%
Activity (Leishmania donovani [24]): 99%

c1ccc(CNCCCNCCCCCCCNCCCNCc2ccccc2)cc1
inhibition at 1 µM (Leishmania donovani [25]): 77%
inhibition in vivo at 10 mg/kg (Leishmania donovani [26]): 65%
IC50 (Trypanosoma brucei [27]): 10 µM
IC50 (Trypanosoma brucei [28]): 10 µM
IC50 (Trypanosoma brucei [29]): 10 µM
IC50 (Trypanosoma brucei [30]): 10 µM
IC50 (Leishmania donovani [31]): 18 µM
inhibition in vivo at 15 mg/kg (Leishmania donovani [32]): 99.9%

COC(=O)/N=C(\NCCCN1CCOCC1)NC(=O)OC
inhibition (INH) (Syrian golden hamster): 80%

c1ccc(CN2CCN(Cc3ccccn3)CCN(Cc3ccccn3)CC2)nc1
inhibition in vivo at 15 mg/kg (Trypanosoma cruzi [33]): 33%
inhibition (INH) (Trypanosoma cruzi [34]): 81%
IC50 (Trypanosoma cruzi [35]): 7 µM
IC50 [36]: 18 µM

Clc1ccc(CNCCCN2CCN(CCCNCc3ccc(Cl)cc3)CC2)cc1
IC50 (MRC5 [37]): 4.5 µM
inhibition at 1.6 µM (Trypanosoma cruzi [38]): 95%

O=C(NCCCNCc1cc(Cl)cc(Cl)c1)Nc1ccsc1
IC50 [39]: 0.028 µM
IC50 (HepG2): 13 µM
IC50 (Trypanosoma brucei [40]): 0.2 µM
IC50 [41]: 0.2 µM

COc1ccc2nc3cc(Cl)ccc3c(NCCCN(CCCNc3c4ccc(Cl)cc4nc4ccc(OC)cc34)C(=O)C(NC(=O)OC(C)(C)C)C(C)C)c2c1 (centres undefined)
IC50 (MRC5 [42]): > 3.13 µM
IC50 (Trypanosoma cruzi [43]): < 1.56 µM
IC50 (Trypanosoma brucei [44]): < 1.56 µM
IC50 (Leishmania infantum [45]): < 1.56 µM
